Columns and labels:
Assay type in all cases: biochemical
[1] = molecular target: T1, recombinant human VAP-1 (Homo sapiens, UniProt Q16853); assay: Activity on recombinant human VAP-1, HRP-coupled Amplex Red hydrogen peroxide assay; settings: substrate 1 mM benzylamine; compound incubated with enzyme at 37° C. for 30 minutes; pH 7.4; read-out: Inhibitory Activity (IC50, nM) human VAP-1
T1 construct: purchased R&D systems
T1 sequence (Q16853 1-763): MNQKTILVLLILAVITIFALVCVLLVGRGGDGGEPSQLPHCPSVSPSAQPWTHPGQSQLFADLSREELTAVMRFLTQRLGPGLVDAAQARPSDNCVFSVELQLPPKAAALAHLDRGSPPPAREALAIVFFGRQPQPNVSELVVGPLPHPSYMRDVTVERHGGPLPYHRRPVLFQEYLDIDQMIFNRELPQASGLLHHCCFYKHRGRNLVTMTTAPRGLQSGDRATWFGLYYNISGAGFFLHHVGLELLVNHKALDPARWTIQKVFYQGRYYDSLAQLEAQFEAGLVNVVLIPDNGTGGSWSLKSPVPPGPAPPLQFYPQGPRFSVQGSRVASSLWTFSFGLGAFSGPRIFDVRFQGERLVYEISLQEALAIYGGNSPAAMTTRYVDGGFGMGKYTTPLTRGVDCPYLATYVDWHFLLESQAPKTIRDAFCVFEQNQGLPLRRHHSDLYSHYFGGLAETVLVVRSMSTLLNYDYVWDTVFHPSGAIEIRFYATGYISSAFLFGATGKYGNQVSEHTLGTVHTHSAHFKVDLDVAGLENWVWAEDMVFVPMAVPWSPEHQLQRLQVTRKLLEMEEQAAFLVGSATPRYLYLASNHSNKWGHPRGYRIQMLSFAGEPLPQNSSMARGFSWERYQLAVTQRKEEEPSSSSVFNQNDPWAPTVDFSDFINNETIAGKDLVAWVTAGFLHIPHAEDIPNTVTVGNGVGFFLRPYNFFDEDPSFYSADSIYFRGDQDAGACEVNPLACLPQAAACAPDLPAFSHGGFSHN
Method in brief: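 Enzyme in 50 mM sodium phosphate (pH 7.4) is exposed to test compound for 30 min at 37 °C. Benzylamine (1 mM) with HRP and Amplex Red then starts the reaction, and the fluorescence rate, relative to a DMSO-only control, gives IC50.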

[2] = molecular target: T2, recombinant human MAO-A (monoamine oxidase-A) (Homo sapiens, UniProt P21397); assay: Activity on recombinant human MAO-A, method similar to the VAP-1 assay; settings: substrate 0.5 mM tyramine; read-out: Inhibitory Activity (IC50, nM) MAO-A
T2 construct: purchased Sigma-Aldrich
T2 sequence (P21397 1-527): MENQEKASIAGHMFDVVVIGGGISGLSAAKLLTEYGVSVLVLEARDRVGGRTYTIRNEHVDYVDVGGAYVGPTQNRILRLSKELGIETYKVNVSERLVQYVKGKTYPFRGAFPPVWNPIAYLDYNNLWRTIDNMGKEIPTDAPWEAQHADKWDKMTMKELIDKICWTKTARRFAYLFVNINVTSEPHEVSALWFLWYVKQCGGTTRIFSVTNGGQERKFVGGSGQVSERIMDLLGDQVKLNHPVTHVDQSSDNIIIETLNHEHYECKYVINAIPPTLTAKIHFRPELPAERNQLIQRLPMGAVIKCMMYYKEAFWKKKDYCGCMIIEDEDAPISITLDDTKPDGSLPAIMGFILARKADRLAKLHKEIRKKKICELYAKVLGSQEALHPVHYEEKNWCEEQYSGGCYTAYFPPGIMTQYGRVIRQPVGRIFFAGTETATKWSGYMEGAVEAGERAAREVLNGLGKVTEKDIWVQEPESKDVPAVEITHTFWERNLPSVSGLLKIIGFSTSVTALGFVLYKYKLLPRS
Method in brief: (§1)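 Enzyme in pH 7.4 phosphate buffer; 30 min, 37° C with compound (DMSO <1%); start with 200 uM Amplex Red + 1 U/mL HRP + tyramine 0.5 mM (MAO-A) or benzylamine 1 mM (MAO-B); kinetic read ex 544/em 590, 1-2 h; % rate decrease vs DMSO control → IC50, 4-parameter fit.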

[3] = molecular target: T3, recombinant human MAO-B (monoamine oxidase-B) (Homo sapiens, UniProt P27338); assay: Activity on recombinant human MAO-B, method similar to the VAP-1 assay; settings: substrate 1 mM benzylamine; read-out: Inhibitory Activity (IC50, nM) MAO-B
T3 construct: purchased Sigma-Aldrich
T3 sequence (P27338 1-520): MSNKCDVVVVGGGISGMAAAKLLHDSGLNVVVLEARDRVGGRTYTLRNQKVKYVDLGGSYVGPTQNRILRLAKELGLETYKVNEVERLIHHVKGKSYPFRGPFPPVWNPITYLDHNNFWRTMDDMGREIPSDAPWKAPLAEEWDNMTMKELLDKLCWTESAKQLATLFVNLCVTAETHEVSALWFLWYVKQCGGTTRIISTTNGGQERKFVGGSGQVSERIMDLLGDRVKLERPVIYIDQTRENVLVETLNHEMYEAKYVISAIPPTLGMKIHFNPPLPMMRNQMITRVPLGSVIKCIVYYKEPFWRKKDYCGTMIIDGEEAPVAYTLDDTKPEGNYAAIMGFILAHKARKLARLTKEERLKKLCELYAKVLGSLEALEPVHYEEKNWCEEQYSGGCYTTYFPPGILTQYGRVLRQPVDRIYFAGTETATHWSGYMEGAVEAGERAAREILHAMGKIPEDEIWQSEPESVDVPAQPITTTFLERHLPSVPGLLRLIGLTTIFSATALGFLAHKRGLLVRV
Method in brief: as §1

[4] = molecular target: T4, recombinant human DAO (diamine oxidase) (Homo sapiens, UniProt P19801); assay: Activity on recombinant human DAO, method similar to the VAP-1 assay; settings: substrate 1 mM putrescine; read-out: Inhibitory Activity (IC50, nM) DAO
T4 construct: purchased R&D systems
T4 sequence (P19801 20-751): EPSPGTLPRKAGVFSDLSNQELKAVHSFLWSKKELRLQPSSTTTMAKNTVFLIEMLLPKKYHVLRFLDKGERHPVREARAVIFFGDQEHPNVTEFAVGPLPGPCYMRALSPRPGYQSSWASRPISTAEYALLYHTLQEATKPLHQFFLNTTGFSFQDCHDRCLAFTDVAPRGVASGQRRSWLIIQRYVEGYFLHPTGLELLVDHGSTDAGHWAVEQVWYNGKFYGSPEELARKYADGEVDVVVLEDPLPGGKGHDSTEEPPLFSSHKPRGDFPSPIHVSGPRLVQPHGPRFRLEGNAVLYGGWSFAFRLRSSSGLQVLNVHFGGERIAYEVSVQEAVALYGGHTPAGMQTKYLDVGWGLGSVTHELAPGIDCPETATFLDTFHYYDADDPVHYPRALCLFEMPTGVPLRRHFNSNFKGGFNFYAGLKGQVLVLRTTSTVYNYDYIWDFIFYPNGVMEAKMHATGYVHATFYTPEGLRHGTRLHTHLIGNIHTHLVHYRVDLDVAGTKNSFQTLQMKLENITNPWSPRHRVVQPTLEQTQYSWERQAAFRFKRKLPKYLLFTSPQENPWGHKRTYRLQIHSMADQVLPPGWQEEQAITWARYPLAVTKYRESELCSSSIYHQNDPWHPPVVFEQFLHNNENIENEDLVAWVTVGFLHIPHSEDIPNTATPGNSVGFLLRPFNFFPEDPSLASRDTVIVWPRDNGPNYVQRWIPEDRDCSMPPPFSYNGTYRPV
Method in brief: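 Inhibition of recombinant human diamine oxidase (DAO, R&D systems) was assessed by the same approach as the VAP-1 assay, using 1 mM putrescine as substrate. Hydrogen peroxide formed was detected through an HRP-coupled Amplex Red reaction yielding fluorescent resorufin, read at 544 nm excitation and 590 nm emission. IC50 values came from four-parameter logistic fitting in GraphPad Prism.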

Row | Compound | IC50 [1] | IC50 [2] | IC50 [3] | IC50 [4]
1 | CCOc1ncc(-c2ccc(Cn3cnn(C/C(=C/F)CN)c3=O)s2)cn1 [Example 179, 2-[(2E)-2-(aminomethyl)-3-fluoroprop-2-en-1-yl]-4-{[5-(2-ethoxypyrimidin-5-yl)thiophen-2-yl]methyl}-2,4-dihydro-3H-1,2,4-triazol-3-one] | 1.2 nM | > 100000 nM | 8400 nM | 89 nM
2 | CC(=O)c1ccc(-c2ccc(Cn3cnn(C/C(=C/F)CN)c3=O)s2)cc1 [Example 180, 4-{[5-(4-acetylphenyl)thiophen-2-yl]methyl}-2-[(2E)-2-(aminomethyl)-3-fluoroprop-2-en-1-yl]-2,4-dihydro-3H-1,2,4-triazol-3-one] | 0.9 nM | > 100000 nM | 410 nM | 1200 nM
3 | CS(=O)(=O)c1cccc(-c2ccc(Cn3cnn(C/C(=C/F)CN)c3=O)s2)c1 [Example 181, 2-[(2E)-2-(aminomethyl)-3-fluoroprop-2-en-1-yl]-4-({5-[3-(methylsulfonyl)phenyl]thiophen-2-yl}methyl)-2,4-dihydro-3H-1,2,4-triazol-3-one] | 1.5 nM | > 100000 nM | 250 nM | 760 nM
4 | CN(C)C(=O)c1cccc(-c2ccc(Cn3cnn(C/C(=C/F)CN)c3=O)s2)c1 [Example 182, 3-[5-({1-[(2E)-2-(aminomethyl)-3-fluoroprop-2-en-1-yl]-5-oxo-1,5-dihydro-4H-1,2,4-triazol-4-yl}methyl)thiophen-2-yl]-N,N-dimethylbenzamide] | 3.7 nM | > 100000 nM | 6600 nM | 3600 nM
5 | CN(C)S(=O)(=O)c1cccc(-c2ccc(Cn3cnn(C/C(=C/F)CN)c3=O)s2)c1 [Example 183, 3-[5-({1-[(2E)-2-(aminomethyl)-3-fluoroprop-2-en-1-yl]-5-oxo-1,5-dihydro-4H-1,2,4-triazol-4-yl}methyl)thiophen-2-yl]-N,N-dimethylbenzenesulfonamide] | 1.2 nM | > 100000 nM | 220 nM | 440 nM
6 | NC/C(=C\F)Cn1ncn(Cc2ccc(-c3cccc(-c4cc[nH]n4)c3)s2)c1=O [Example 184, 2-[(2E)-2-(aminomethyl)-3-fluoroprop-2-en-1-yl]-4-({5-[3-(1H-pyrazol-3-yl)phenyl]thiophen-2-yl}methyl)-2,4-dihydro-3H-1,2,4-triazol-3-one] | 3.4 nM | > 100000 nM | 330 nM | 3800 nM
7 | CC(C)Oc1ccc(-c2ccc(Cn3cnn(C/C(=C/F)CN)c3=O)s2)cn1 [Example 185, 2-[(2E)-2-(aminomethyl)-3-fluoroprop-2-en-1-yl]-4-({5-[6-(propan-2-yloxy)pyridin-3-yl]thiophen-2-yl}methyl)-2,4-dihydro-3H-1,2,4-triazol-3-one] | 2.7 nM | > 100000 nM | 310 nM | 730 nM
8 | Cn1cc(-c2ccc(Cn3cnn(C/C(=C/F)CN)c3=O)s2)ccc1=O [Example 187, 5-[5-({1-[(2E)-2-(aminomethyl)-3-fluoroprop-2-en-1-yl]-5-oxo-1,5-dihydro-4H-1,2,4-triazol-4-yl}methyl)thiophen-2-yl]-1-methylpyridin-2(1H)-one] | 1.3 nM | > 100000 nM | 1600 nM | 1800 nM
9 | CS(=O)(=O)CCn1cc(-c2ccc(Cn3cnn(C/C(=C/F)CN)c3=O)s2)ccc1=O [Example 188, 5-[5-({1-[(2E)-2-(aminomethyl)-3-fluoroprop-2-en-1-yl]-5-oxo-1,5-dihydro-4H-1,2,4-triazol-4-yl}methyl)thiophen-2-yl]-1-[2-(methylsulfonyl)ethyl]pyridin-2(1H)-one] | 4.2 nM | > 100000 nM | > 10000 nM | 450 nM
10 | CC(=O)Nc1nc2cc(-c3ccc(Cn4cnn(C/C(=C/F)CN)c4=O)s3)ccc2s1 [Example 189, N-{5-[5-({1-[(2E)-2-(aminomethyl)-3-fluoroprop-2-en-1-yl]-5-oxo-1,5-dihydro-4H-1,2,4-triazol-4-yl}methyl)thiophen-2-yl]-1,3-benzothiazol-2-yl}acetamide] | 0.7 nM | 22500 nM | 420 nM | 780 nM
11 | NC/C(=C\F)Cn1ncn(Cc2ccc(-c3cnn(C4CCNCC4)c3)s2)c1=O [Example 190, 2-[(2E)-2-(aminomethyl)-3-fluoroprop-2-en-1-yl]-4-({5-[1-(piperidin-4-yl)-1H-pyrazol-4-yl]thiophen-2-yl}methyl)-2,4-dihydro-3H-1,2,4-triazol-3-one] | 3.8 nM | > 100000 nM | > 100000 nM | 1800 nM
12 | NC/C(=C\F)Cn1ncn(Cc2ccc(-c3ccc(=O)n(Cc4ccccc4)c3)s2)c1=O [Example 191, 5-[5-({1-[(2E)-2-(aminomethyl)-3-fluoroprop-2-en-1-yl]-5-oxo-1,5-dihydro-4H-1,2,4-triazol-4-yl}methyl)thiophen-2-yl]-1-benzylpyridin-2(1H)-one] | 1.1 nM | > 100000 nM | 1500 nM | 130 nM
